{"source": "patent US20090286866A1", "about": "“Double compartment skincare products comprising avermectin/milbemycin compounds” (GALDERMA S.A., priority 2006, published 2009)", "key": {"[1]": {"assay": "Comparative study of the chemical stability of ivermectin in various excipients", "format": "physicochemical", "source_text": "Comparative study of the chemical stability of ivermectin in various excipients."}, "[2]": {"assay": "Maximum solubility of ivermectin in various excipients", "format": "physicochemical", "settings": "room temperature", "experimental": "Study of the maximum solubility of ivermectin at T=1 hour at room temperature in various excipients."}}}
{"substance": "ivermectin", "values": [{"measurement": "Amount after storage at 25° C. for 1 month", "setting": "[1]; in Benzyl alcohol, 25° C.", "result": 99.01, "unit": "%"}, {"measurement": "Amount after storage at 40° C. for 1 month", "setting": "[1]; in Benzyl alcohol, 40° C.", "result": 98.62, "unit": "%"}, {"measurement": "Amount at T0", "setting": "[1]; in Benzyl alcohol, T0", "result": 98.72, "unit": "%"}, {"measurement": "Amount after storage at 25° C. for 1 month", "setting": "[1]; in Diisopropyl adipate, 25° C.", "result": 97.19, "unit": "%"}, {"measurement": "Amount after storage at 40° C. for 1 month", "setting": "[1]; in Diisopropyl adipate, 40° C.", "result": 96.70, "unit": "%"}, {"measurement": "Amount at T0", "setting": "[1]; in Diisopropyl adipate, T0", "result": 102.5, "unit": "%"}, {"measurement": "Amount after storage at 25° C. for 1 month", "setting": "[1]; in Macrogol 15-hydroxystearate, 25° C.", "result": 95.32, "unit": "%"}, {"measurement": "Amount after storage at 40° C. for 1 month", "setting": "[1]; in Macrogol 15-hydroxystearate, 40° C.", "result": 71.88, "unit": "%"}, {"measurement": "Amount at T0", "setting": "[1]; in Macrogol 15-hydroxystearate, T0", "result": 98.76, "unit": "%"}, {"measurement": "Amount after storage at 25° C. for 1 month", "setting": "[1]; in PPG 15-stearyl ether, 25° C.", "result": 98.61, "unit": "%"}, {"measurement": "Amount after storage at 40° C. for 1 month", "setting": "[1]; in PPG 15-stearyl ether, 40° C.", "result": 98.07, "unit": "%"}, {"measurement": "Amount at T0", "setting": "[1]; in PPG 15-stearyl ether, T0", "result": 102.48, "unit": "%"}, {"measurement": "Amount after storage at 25° C. for 1 month", "setting": "[1]; in Phenoxyethanol, 25° C.", "result": 97.77, "unit": "%"}, {"measurement": "Amount after storage at 40° C. for 1 month", "setting": "[1]; in Phenoxyethanol, 40° C.", "result": 98.56, "unit": "%"}, {"measurement": "Amount at T0", "setting": "[1]; in Phenoxyethanol, T0", "result": 99.42, "unit": "%"}, {"measurement": "Amount after storage at 25° C. for 1 month", "setting": "[1]; in Poloxamer 124, 25° C.", "result": 98.19, "unit": "%"}, {"measurement": "Amount after storage at 40° C. for 1 month", "setting": "[1]; in Poloxamer 124, 40° C.", "result": 92.34, "unit": "%"}, {"measurement": "Amount at T0", "setting": "[1]; in Poloxamer 124, T0", "result": 98.09, "unit": "%"}, {"measurement": "Stability of ivermectin (in words)", "setting": "[1]; in diisopropyl adipate, benzyl alcohol, PPG-15 stearyl ether and phenoxyethanol, at room temperature or at 40° C.", "result": "good stability"}, {"measurement": "Stability of ivermectin (in words)", "setting": "[1]; in macrogol 15-hydroxystearate and in poloxamer, in particular at 40° C.", "result": "less stable"}, {"measurement": "Maximum solubility", "setting": "[2]; in Alkyl benzoate, T=1 hour", "result": "1.60 % (m/m)"}, {"measurement": "Maximum solubility", "setting": "[2]; in Capric/caprylic triglycerides, T=1 hour", "result": "1.70 % (m/m)"}, {"measurement": "Maximum solubility", "setting": "[2]; in Diisopropyl adipate, T=1 hour", "result": "10.40 % (m/m)"}, {"measurement": "Maximum solubility", "setting": "[2]; in Dimethyl isosorbide, T=1 hour", "result": "35.20 % (m/m)"}, {"measurement": "Maximum solubility", "setting": "[2]; in Ethanol rectapur, T=1 hour", "result": "14.47 % (m/m)"}, {"measurement": "Maximum solubility", "setting": "[2]; in Macrogol 15 hydroxystearate, T=1 hour", "result": "10.60 % (m/m)"}, {"measurement": "Maximum solubility", "setting": "[2]; in N-Methyl-2-pyrrolidone, T=1 hour", "result": "58.13 % (m/m)"}, {"measurement": "Maximum solubility", "setting": "[2]; in Octyl dodecanol, T=1 hour", "result": "2.50 % (m/m)"}, {"measurement": "Maximum solubility", "setting": "[2]; in Oleyl alcohol, T=1 hour", "result": "3.48 % (m/m)"}, {"measurement": "Maximum solubility", "setting": "[2]; in PEG 400, T=1 hour", "result": "9.14 % (m/m)"}, {"measurement": "Maximum solubility", "setting": "[2]; in PPG 15 stearyl ether, T=1 hour", "result": "3.30 % (m/m)"}, {"measurement": "Maximum solubility", "setting": "[2]; in Phenoxyethanol, T=1 hour", "result": "15.70 % (m/m)"}, {"measurement": "Maximum solubility", "setting": "[2]; in Poloxamer 124, T=1 hour", "result": "7.50 % (m/m)"}, {"measurement": "Maximum solubility", "setting": "[2]; in Polysorbate 80, T=1 hour", "result": "10.31 % (m/m)"}, {"measurement": "Maximum solubility", "setting": "[2]; in Propylene glycol (PG), T=1 hour", "result": "21.83 % (m/m)"}, {"measurement": "Maximum solubility", "setting": "[2]; in Triacetin, T=1 hour", "result": "7.22 % (m/m)"}]}
